Measurements published in US12018014B2, “Pyrrole-substituted indolone derivative or pharmaceutically acceptable salts thereof, and preparation method therefor and application thereof” (SUZHOU GENHOUSE PHARMACEUTICAL CO., LTD., priority 2018, dated 2024).
Marks after values point to notes of the source that are not given here. Each block holds one compound with its values, some of them ahead of it.

Columns and labels:
[1] = test system: human MV-4-11 cell strain; test: MTS in vitro antiproliferative activity; type: cell-based; conditions: MV4-11, 72 hours, read-out: IC50, in vitro proliferation of human MV-4-11 cell strain
Protocol: The human acute leukemia cell MV-4-11 is an Flt-3 mutant cell strain. The MTS method was used to determine the in vitro antiproliferative activity of the compound against MV-4-11 (derived from ATCC): trypsinizing the cells in the logarithmic growth phase, counting them, resuspending an appropriate number of the cells in the culture solution, adding the culture solution to the 96-well plate by 150 μL per well, and culturing it overnight. After that, 50 μL of 4-fold serially diluted test compound or control culture solution was added to each well, and cultured for 72 hours. The culture solution was drained, and 120 μL of MTS detection solution (100 μL of fresh culture medium and 20 μL of MTS solution) was added to each well, and incubated at 37° C., and the OD490 value was read. Graphpad Prism5 software was used to analyze and process the data to obtain IC50.

[2] = molecular target: ALK (Homo sapiens (Human), UniProt Q9UM73); test: HTRF in vitro tyrosine kinase inhibition; type: biochemical; conditions: ATP 120 μM, read-out: IC50 against ALK
Chain of ALK (Q9UM73 19-1620, species assumed): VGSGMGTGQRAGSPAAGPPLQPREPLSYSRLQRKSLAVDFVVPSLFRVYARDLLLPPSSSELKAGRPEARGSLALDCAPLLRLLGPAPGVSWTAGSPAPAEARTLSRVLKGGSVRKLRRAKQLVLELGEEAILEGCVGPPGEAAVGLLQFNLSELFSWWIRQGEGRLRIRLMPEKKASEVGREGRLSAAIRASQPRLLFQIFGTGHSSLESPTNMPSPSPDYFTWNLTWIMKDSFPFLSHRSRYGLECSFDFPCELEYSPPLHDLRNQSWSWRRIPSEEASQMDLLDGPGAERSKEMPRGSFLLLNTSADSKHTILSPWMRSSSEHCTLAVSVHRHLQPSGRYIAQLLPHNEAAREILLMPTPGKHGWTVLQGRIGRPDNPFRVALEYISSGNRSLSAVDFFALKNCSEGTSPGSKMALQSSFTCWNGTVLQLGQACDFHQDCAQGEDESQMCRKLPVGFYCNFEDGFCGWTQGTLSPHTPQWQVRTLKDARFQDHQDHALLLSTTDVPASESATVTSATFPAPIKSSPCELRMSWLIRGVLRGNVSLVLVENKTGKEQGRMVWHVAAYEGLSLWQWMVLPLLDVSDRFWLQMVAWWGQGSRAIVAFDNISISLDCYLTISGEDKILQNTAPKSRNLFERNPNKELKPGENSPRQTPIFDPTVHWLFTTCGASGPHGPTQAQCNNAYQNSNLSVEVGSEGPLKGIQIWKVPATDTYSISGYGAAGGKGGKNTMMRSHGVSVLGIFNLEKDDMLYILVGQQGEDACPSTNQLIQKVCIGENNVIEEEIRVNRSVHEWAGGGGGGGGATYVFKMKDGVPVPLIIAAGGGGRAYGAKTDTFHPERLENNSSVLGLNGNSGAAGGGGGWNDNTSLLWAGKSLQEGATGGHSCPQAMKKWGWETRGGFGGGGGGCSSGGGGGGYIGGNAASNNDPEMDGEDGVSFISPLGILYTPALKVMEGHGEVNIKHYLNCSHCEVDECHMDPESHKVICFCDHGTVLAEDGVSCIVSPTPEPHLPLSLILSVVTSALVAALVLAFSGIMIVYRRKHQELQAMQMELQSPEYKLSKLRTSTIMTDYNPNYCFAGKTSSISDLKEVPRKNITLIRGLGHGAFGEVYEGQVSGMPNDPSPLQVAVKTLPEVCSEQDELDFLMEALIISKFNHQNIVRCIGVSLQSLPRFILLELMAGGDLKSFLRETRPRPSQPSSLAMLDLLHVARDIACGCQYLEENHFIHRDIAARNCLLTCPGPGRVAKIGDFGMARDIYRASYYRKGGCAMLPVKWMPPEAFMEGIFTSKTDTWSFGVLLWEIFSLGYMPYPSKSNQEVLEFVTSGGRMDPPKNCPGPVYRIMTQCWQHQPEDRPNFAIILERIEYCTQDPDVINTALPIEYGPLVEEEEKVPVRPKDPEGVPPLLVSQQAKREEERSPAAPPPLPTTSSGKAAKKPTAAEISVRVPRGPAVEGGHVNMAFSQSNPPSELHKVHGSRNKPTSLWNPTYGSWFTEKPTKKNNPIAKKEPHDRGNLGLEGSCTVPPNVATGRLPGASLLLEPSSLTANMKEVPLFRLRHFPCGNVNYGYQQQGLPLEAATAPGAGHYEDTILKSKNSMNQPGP
Protocol: (§1) The in vitro inhibitory activity of the compounds on tyrosine kinase was measured by HTRF (Homogeneous Time-Resolved Fluorescence) method.
(§2) The compounds were serially diluted with DMSO in a 96-well plate into 8 solutions of different concentrations with 100 times the final concentration. Then a buffer solution, which was prepared by adding 5 mM MgCl2 and 1 mM DTT to 1-fold Enzymetic buffer provided by the kit, was diluted in a 96-well plate into a solution with 5 times the final concentration.
(§3) The diluted compounds were added to a 384-well plate, respectively, and double wells were provided for each concentration. Then 0.25 ng of kinase was added per well. At the same time, negative and positive wells were provided, and the well to which 5% DMSO of the same volume was added was taken as control. […] Preincubation was carried out for 10 minutes at room temperature. A substrate with a final concentration of 1 μM and ATP with a final concentration of 120 μM were added, and incubated at room temperature for 90 minutes. Then, a fluorescent acceptor (XL665 labeled streptavidin) with a final concentration of 0.0625 μM and 1-fold fluorescent donor (Europium cryptate labeled TK antibody) with a final concentration of 0.0625 μM were added, and incubated at room temperature for 60 minutes. The plates were read by a microplate reader under the conditions of λex=330 nm, λem=620 nm and λem=665 nm. A ratio between the reading at 665 nm and the reading at 620 nm was calculated, and the inhibition rate was calculated according to this ratio.

[3] = molecular target: FGFR1 (Homo sapiens (Human), UniProt P11362); test: HTRF in vitro tyrosine kinase inhibition; type: biochemical; conditions: ATP 120 μM, read-out: IC50 against FGFR1
Protocol: as §1, §2, §3

[4] = molecular target: FLT3 (Homo sapiens (Human), UniProt P36888); test: HTRF in vitro tyrosine kinase inhibition; type: biochemical; conditions: ATP 120 μM, read-out: IC50 against FLT3
Protocol: as §1, §2, §3

[5] = molecular target: FLT3 D835Y (Homo sapiens (Human), UniProt P36888, D835Y); test: HTRF in vitro tyrosine kinase inhibition; type: biochemical; conditions: ATP 120 μM, read-out: IC50 against FLT3 D835Y
Protocol: as §1, §2, §3

[6] = molecular target: FLT3-ITD (Homo sapiens, UniProt P36888, ITD); test: HTRF in vitro tyrosine kinase inhibition; type: biochemical
Protocol: as §1, §2, §3

[7] = molecular target: KDR (VEGFR2) (Homo sapiens (Human), UniProt P35968); test: HTRF in vitro tyrosine kinase inhibition; type: biochemical; conditions: ATP 120 μM, read-out: IC50 against KDR
Chain of KDR (VEGFR2) (P35968 20-1356): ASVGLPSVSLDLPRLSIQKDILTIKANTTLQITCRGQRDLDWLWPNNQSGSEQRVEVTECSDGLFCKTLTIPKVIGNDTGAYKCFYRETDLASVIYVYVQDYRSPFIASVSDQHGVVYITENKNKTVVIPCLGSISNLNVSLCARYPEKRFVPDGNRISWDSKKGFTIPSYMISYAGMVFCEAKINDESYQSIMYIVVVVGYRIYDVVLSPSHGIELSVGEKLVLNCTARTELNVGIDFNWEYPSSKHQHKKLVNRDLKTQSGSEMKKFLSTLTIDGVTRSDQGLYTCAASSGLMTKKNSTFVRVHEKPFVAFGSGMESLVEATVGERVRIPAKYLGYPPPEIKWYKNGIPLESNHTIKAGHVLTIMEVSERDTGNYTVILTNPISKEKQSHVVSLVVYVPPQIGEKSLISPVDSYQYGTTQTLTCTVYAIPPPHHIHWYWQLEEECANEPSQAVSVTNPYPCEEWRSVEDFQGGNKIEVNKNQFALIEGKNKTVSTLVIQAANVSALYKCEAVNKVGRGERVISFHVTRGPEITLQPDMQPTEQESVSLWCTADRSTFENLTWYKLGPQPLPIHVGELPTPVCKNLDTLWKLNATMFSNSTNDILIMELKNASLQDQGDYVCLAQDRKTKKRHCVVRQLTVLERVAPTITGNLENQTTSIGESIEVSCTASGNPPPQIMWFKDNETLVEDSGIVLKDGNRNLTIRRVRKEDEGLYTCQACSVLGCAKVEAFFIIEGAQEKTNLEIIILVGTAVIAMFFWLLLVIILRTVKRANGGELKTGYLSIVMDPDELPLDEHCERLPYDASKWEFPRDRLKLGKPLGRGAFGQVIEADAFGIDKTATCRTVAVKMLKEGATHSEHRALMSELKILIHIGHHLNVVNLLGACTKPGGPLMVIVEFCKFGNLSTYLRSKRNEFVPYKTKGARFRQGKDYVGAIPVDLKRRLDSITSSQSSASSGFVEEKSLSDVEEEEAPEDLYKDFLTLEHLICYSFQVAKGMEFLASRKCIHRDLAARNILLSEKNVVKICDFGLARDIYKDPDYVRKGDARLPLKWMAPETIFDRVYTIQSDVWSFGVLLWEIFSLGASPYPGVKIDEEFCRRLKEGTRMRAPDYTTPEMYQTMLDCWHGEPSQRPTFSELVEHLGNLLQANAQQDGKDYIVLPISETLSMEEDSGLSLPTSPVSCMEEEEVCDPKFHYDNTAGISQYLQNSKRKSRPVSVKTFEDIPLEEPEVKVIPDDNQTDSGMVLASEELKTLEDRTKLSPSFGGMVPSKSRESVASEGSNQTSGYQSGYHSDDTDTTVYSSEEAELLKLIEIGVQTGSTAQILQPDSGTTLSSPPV
Protocol: as §1, §2, §3

[8] = molecular target: PDGFRβ (Homo sapiens (Human), UniProt P09619); test: HTRF in vitro tyrosine kinase inhibition; type: biochemical; conditions: ATP 120 μM, read-out: IC50 against PDGFRβ
Protocol: as §1, §2, §3

[9] = molecular target: RET (Homo sapiens (Human), UniProt P07949); test: HTRF in vitro tyrosine kinase inhibition; type: biochemical; conditions: ATP 120 μM, read-out: IC50 against RET
Chain of RET (P07949 29-1114, species assumed): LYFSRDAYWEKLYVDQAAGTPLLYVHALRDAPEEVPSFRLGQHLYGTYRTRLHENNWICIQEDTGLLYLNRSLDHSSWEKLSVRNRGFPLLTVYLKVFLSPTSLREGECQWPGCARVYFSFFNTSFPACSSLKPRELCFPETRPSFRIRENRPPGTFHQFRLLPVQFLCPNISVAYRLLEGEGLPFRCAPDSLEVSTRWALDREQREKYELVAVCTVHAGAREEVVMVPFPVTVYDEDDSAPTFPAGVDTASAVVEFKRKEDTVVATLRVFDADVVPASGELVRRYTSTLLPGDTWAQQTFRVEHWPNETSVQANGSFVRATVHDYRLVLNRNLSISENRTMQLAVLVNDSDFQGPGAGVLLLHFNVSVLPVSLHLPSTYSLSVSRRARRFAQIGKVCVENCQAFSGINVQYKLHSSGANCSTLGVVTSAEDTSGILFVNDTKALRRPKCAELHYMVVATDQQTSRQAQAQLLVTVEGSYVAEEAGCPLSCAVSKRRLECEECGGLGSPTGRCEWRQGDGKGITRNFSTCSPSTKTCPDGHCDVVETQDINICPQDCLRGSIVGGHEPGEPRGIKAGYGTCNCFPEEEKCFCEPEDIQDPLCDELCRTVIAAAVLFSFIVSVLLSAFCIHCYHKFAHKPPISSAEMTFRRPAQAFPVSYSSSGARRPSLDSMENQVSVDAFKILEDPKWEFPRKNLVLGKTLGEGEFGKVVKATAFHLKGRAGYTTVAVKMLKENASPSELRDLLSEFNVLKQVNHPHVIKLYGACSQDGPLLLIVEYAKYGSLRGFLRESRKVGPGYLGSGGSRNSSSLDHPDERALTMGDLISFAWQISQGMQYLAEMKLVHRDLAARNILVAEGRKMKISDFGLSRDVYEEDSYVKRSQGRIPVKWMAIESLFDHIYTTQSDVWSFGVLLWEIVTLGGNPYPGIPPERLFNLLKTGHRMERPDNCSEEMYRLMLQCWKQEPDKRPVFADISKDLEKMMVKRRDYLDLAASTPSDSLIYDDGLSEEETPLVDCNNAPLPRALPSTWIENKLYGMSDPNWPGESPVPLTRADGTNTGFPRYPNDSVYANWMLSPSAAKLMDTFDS
Protocol: as §1, §2, §3

[10] = molecular target: c-Kit (Homo sapiens (Human), UniProt P10721); test: HTRF in vitro tyrosine kinase inhibition; type: biochemical; conditions: ATP 120 μM, read-out: IC50 against c-Kit
Chain of c-Kit (P10721 26-976): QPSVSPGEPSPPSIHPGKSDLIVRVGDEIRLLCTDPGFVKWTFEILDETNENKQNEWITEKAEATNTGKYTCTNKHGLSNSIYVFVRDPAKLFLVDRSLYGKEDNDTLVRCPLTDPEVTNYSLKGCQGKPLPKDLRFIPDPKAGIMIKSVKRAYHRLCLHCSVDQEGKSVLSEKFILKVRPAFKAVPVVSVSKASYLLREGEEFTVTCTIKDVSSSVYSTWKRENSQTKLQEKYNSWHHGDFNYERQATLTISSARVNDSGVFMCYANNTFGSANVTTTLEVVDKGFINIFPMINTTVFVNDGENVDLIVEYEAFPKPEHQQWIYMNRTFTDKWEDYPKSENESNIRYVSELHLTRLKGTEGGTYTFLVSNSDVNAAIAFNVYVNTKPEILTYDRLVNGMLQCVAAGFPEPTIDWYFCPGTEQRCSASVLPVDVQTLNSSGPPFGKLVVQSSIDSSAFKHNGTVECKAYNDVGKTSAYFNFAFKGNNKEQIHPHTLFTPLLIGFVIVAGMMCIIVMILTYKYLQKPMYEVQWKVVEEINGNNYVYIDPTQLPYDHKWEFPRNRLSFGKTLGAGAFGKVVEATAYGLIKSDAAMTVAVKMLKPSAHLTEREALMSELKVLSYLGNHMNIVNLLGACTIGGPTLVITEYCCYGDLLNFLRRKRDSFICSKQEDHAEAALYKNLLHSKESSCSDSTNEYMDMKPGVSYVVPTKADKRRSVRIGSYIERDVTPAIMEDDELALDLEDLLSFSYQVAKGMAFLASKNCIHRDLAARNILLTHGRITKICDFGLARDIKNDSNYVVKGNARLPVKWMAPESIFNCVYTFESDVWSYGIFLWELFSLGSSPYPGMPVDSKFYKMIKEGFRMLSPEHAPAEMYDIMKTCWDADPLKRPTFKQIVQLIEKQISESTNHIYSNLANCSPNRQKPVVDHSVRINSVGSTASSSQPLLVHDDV
Protocol: as §1, §2, §3

[11] = test system: MV-4-11 transplanted tumor; test: MV-4-11 subcutaneously transplanted tumor in nude mice; type: in vivo, Balb/c nude mice; conditions: for Average volume of tumor d15: d15 (start of administration); for Average volume of tumor d15 / Average volume of tumor d36: mean ± S.E, n=6; for Average volume of tumor d36 / anti-tumor effect (in words): 21 days
From the text: The formula of calculating the tumor volume (TV) is TV=½×a×b^2, where a represents the long diameter of the tumor and b represents the short diameter of the tumor.

[12] = Toxicity and animal's weight in MV-4-11 nude mouse study; conditions: 80 mg/kg intragastric, 21 days
Protocol: MV-4-11 cells (FLT3-ITD mutant human acute biphenotypic myeloid leukemia cell strain, ATCC) were cultured and expanded in vitro, and the cells in the logarithmic growth phase were collected and resuspended in a serum-free EMEM culture solution, and the cell suspension was injected subcutaneously with a syringe into the armpit of the front right limb of male Balb/c nude mice.

[13] = test system: MV-4-11 (FLT3-ITD) xenograft tumor; conditions: oral 20 mg/kg/d; cited from earlier work
[14] = 29 AML patients, single dose 50 mg to 350 mg; cited from earlier work
[15] = test system: FLT3 phosphorylation; conditions: dose of no less than 200 mg; cited from earlier work
[16] = test system: relapsed or refractory AML; conditions: cited from earlier work
[17] = 10 mg/kg intragastric once a day
[18] = 80 mg/kg intragastric once a day

IC50 [1]: 178 nM
Compound: Cc1[nH]c(/C=C2\C(=O)Nc3ccc(F)cc32)c(C)c1NC(=O)N1CCN(C)CC1 [Compound 2]

IC50 [1]: 138 nM
Compound: CCN1CCN(C(=O)Nc2c(C)[nH]c(/C=C3\C(=O)Nc4ccc(F)cc43)c2C)CC1 [Compound 3]

Compound: CNC1CCN(C(=O)Nc2c(C)[nH]c(/C=C3\C(=O)Nc4ccc(F)cc43)c2C)CC1.Cl [Compound 5]
IC50 [2]: 4900 nM
IC50 [3]: 2340 nM
IC50 [4]: 8.8 nM
IC50 [5]: 17.3 nM
IC50 [6]: < 1.5 nM
IC50 [7]: 891 nM
IC50 [8]: 190 nM
IC50 [9]: 110 nM
IC50 [10]: 286 nM
IC50 [1]: 66 nM
Average volume of tumor d15 ([11]; 2.5 mg/kg group): 167.76 ± 11.65 mm^3
Average volume of tumor d36 ([11]; 2.5 mg/kg intragastric once a day, hydrochloride): 359.18 ± 49.62** mm^3
anti-tumor effect (in words) ([11]; 2.5 mg/kg intragastric): notable inhibition on the growth of the transplanted tumor
Average volume of tumor d15 ([11]; 5 mg/kg group): 167.69 ± 11.70 mm^3
Average volume of tumor d36 ([11]; 5 mg/kg intragastric once a day, hydrochloride): 34.71 ± 4.32** mm^3
Average volume of tumor d15 ([11]; 10 mg/kg group): 167.75 ± 11.59 mm^3
Average volume of tumor d36 [11, 17]: 28.41 ± 3.38** mm^3
Average volume of tumor d15 ([11]; 80 mg/kg group): 167.79 ± 13.04 mm^3
Average volume of tumor d36 [11, 18]: 19.60 ± 4.21** mm^3
Average volume of tumor d15 ([11]; 160 mg/kg group): 167.59 ± 11.93 mm^3
Average volume of tumor d36 ([11]; 160 mg/kg intragastric once a day, hydrochloride): 20.74 ± 1.38** mm^3
anti-tumor effect (in words) ([11]; dose of no less than 5 mg/kg intragastric): the transplanted tumor subsided

IC50 [1]: 82.2 nM
Compound: Cc1[nH]c(/C=C2\C(=O)Nc3ccc(F)cc32)c(C)c1NC(=O)NC1CCN(C)CC1 [Compound 7]

IC50 [1]: 74.3 nM
Compound: CCN(CC)CCNC(=O)c1c(C)[nH]c(/C=C2\C(=O)Nc3ccc(F)cc32)c1C [Sunitinib]
Average volume of tumor d15 ([11]; 10 mg/kg group): 167.64 ± 12.88 mm^3
Average volume of tumor d36 [11, 17]: 178.93 ± 13.89** mm^3
Average volume of tumor d15 ([11]; 80 mg/kg group): 167.62 ± 13.27 mm^3
Average volume of tumor d36 [11, 18]: 22.17 ± 1.95** mm^3
animal's weight (in words) [12]: decreased significantly
tumor inhibitory effect (in words) [13]: significant tumor inhibitory effect
patients with drug-related adverse reactions [14]: 31%
patients with strong inhibitory effect on FLT3 phosphorylation [15]: more than 50%
toxic reaction (in words) ([16]; 75 mg group): grade 4 dose-limiting fatigue and hypertension
morphological reaction ([16]; 16 patients, 50 or 75 mg·d^−1): 1 case
partial reaction (PR) ([16]; 16 patients, 50 or 75 mg·d^−1): 5 cases
